In patent US20160158415A1, “METHOD FOR DETOXIFYING A BIOLOGICAL TISSUE” (Sorin Group Italia S.r.l., priority 2010, published 2016):
“Also recorded” adds a separate entry of the source.

Assay: Fuchsine staining of free aldehyde groups on fixed, detoxified tissue (observed colour)
Set-up: species or system bovine
Conditions: FIG. 1 samples; detoxified at room temperature about 24 hours; homocysteic acid 1.00% w/v or taurine 0.70% w/v in phosphate buffer pH 7; weaker staining = fewer free aldehyde groups
Experimental: The efficacy of the method described herein, and therefore the occurrence of the reaction between the amino groups of the detoxifying molecule and the aldehyde groups present on the fixed tissue, is evaluated by staining of the aldehyde groups remaining free. The greater the staining intensity, the more numerous are the free aldehyde groups and, on the contrary, the weaker (or absent) the staining, the less numerous (or absent) are the free aldehyde groups present on the detoxified tissue.
The detoxification step was conducted at room temperature (20° C.), 40° C. and 50° C., for a period of time of 24 hours, using about 200 ml of solution for each tissue.
a second control sample (FIG. 1B) fixed with glutaraldehyde and detoxified with a solution containing homocysteic acid at a concentration (w/v) of 1.00% in phosphate buffer pH 7;
The tissue samples were immersed in the detoxifying solutions for about 24 hours at room temperature with gentle agitation.
The samples were immersed in the detoxifying solution for about 24 hours with gentle agitation both at room temperature and at 40° C.; the fourth sample detoxified at 50° C. was maintained immersed for 7-8 hours with gentle agitation.
Tissue staining to detect free aldehyde groups uses an acidic solution of rosaniline hydrochloride (fuchsine). […]

N[C@@H](CCS(=O)(=O)O)C(=O)O [homocysteic acid]
Staining observed: less than that of the control sample; also recorded: Violet
